*1 amine or outer side, *2 acyl side, *3 side chain or, on linkers, in order; H or OH if unused. Where a SMILES comes first, the peptide text is derived from it. Bridges are numbered along the chain shown (N, C = ends). Roman numbers before positions name the chains, in order. [ ]: non-standard residue; d: D form. Phe(4-CF3) = N[C@@H](Cc1ccc(C(F)(F)F)cc1)C(=O)O; 1Nal = N[C@@H](Cc1cccc2ccccc12)C(=O)O; Diglycolyl = O=C(COCC(=O)[*:2])[*:1]; NMeR = CN[C@@H](CCCNC(=N)N)C(=O)O; Tic = O=C(O)[C@@H]1Cc2ccccc2CN1; X1 = O=C(c1ccccc1C[*:2])[*:1]; Pen = CC(C)(S)[C@H](N)C(=O)O
target: T1, rh integrin α4β7 (Homo sapiens, UniProt P13612+P26010); test: α4β7-MAdCAM Competition ELISA; format: binding; details: thioether monomer peptides, Table 6; read-out: ELISA A4B7
T1 construct: purchased R&D Systems 5397-A30
T1 sequence (P13612 34-977 limits assumed): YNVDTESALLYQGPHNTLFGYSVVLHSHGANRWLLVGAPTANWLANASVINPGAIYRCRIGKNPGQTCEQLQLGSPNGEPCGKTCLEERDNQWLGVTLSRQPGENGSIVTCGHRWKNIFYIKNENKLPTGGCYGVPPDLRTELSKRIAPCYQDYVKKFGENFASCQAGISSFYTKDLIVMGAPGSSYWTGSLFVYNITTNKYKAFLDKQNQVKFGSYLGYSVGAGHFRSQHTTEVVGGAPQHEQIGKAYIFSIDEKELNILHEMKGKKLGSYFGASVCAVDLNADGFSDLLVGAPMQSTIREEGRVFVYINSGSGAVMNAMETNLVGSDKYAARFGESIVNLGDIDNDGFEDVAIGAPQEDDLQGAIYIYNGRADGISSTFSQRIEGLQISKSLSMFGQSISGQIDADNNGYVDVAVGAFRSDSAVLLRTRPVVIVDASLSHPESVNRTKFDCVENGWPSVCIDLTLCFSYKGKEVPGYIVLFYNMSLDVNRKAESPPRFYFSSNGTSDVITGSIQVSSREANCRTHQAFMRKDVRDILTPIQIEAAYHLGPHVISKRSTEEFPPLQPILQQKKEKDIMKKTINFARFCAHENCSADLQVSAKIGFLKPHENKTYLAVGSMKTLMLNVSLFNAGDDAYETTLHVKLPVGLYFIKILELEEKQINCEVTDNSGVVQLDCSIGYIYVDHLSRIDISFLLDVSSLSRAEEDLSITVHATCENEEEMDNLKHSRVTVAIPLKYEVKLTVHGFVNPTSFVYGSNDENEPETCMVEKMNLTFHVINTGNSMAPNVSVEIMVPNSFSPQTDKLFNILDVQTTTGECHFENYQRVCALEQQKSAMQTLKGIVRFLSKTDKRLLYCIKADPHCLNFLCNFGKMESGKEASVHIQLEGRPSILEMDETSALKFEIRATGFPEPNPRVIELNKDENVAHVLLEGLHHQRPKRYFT
T1 sequence (P26010 20-723 limits assumed): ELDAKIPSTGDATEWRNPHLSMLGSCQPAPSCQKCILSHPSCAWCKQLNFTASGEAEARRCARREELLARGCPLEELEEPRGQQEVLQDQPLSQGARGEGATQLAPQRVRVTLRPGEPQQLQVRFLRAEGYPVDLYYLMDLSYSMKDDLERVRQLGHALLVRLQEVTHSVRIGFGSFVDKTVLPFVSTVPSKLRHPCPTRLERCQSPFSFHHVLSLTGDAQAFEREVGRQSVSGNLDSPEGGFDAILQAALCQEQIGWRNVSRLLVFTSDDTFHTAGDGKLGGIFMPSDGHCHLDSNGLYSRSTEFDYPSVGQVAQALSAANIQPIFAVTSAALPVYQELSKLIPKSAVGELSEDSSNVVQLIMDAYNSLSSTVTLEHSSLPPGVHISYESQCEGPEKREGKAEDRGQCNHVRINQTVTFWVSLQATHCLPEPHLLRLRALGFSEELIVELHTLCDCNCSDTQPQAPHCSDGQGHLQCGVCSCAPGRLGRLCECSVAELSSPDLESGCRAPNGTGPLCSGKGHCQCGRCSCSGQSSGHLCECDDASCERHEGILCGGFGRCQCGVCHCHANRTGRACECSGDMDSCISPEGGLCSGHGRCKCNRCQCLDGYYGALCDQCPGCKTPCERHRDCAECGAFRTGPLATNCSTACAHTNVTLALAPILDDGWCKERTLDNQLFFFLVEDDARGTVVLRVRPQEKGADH
Method in brief: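 Recombinant human α4β7 captured on nickel-coated plates, then incubated 1 h at room temperature with serially diluted peptides (final top 10 μM) and 10 nM final MAdCAM-1 in Tris pH 7.6 buffer with 1 mM MnCl2 or MgCl2. Bound MAdCAM-1 detected with anti-human IgG1-HRP and TMB, absorbance at 450 nm.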

SMILES	IC50 [µM]
CC(C)C[C@@H]1NC(=O)[C@H]([C@@H](C)O)NC(=O)[C@H](CC(=O)O)NC(=O)[C@H](CO)NC(=O)[C@H](CCCNC(=N)N)N(C)C(=O)c2ccccc2CSC(C)(C)[C@@H](C(=O)N[C@@H](Cc2c[nH]c3ccccc23)C(=O)N[C@H](CCC(=O)O)C(=O)N[C@H](Cc2ccccc2)C(N)=O)NC1=O [compound 107] (HELM PEPTIDE1{[meR].S.D.T.L.[Pen].W.[dE].[dF].[am]}|CHEM1{[O=C(c1ccccc1C[*:2])[*:1]]}$PEPTIDE1,CHEM1,1:R1-1:R1|PEPTIDE1,CHEM1,6:R3-1:R2$$$V2.0)	< 0.025
CC(C)C[C@@H]1NC(=O)[C@H]([C@@H](C)O)NC(=O)[C@H](CC(=O)O)NC(=O)[C@H](CO)NC(=O)[C@H](CCCNC(=N)N)N(C)C(=O)c2ccccc2CSC(C)(C)[C@@H](C(=O)N[C@@H](Cc2cccc3ccccc23)C(=O)N[C@H](CCC(=O)O)C(=O)N(C)[C@@H](CCCCN)C(N)=O)NC1=O [compound 69] (HELM PEPTIDE1{[meR].S.D.T.L.[Pen].[O=C([C@H](Cc1cccc2ccccc12)N[*:1])[*:2]].[dE].[meK].[am]}|CHEM1{[O=C(c1ccccc1C[*:2])[*:1]]}$PEPTIDE1,CHEM1,1:R1-1:R1|PEPTIDE1,CHEM1,6:R3-1:R2$$$V2.0)	< 0.025
CC(=O)NCCCC[C@@H](NC(=O)[C@@H](CCC(=O)O)NC(=O)[C@H](Cc1ccc(O)cc1)NC(=O)[C@H]1NC(=O)[C@H](CC(C)C)NC(=O)[C@H]([C@@H](C)O)NC(=O)[C@H](CC(=O)O)NC(=O)[C@H](CO)NC(=O)[C@H](CCCNC(=N)N)N(C)C(=O)c2ccccc2CSC1(C)C)C(N)=O [compound 91] (HELM PEPTIDE1{[meR].S.D.T.L.[Pen].Y.[dE].[dK].[am]}|PEPTIDE2{[ac]}|CHEM1{[O=C(c1ccccc1C[*:2])[*:1]]}$PEPTIDE1,PEPTIDE2,9:R3-1:R2|PEPTIDE1,CHEM1,1:R1-1:R1|PEPTIDE1,CHEM1,6:R3-1:R2$$$V2.0)	< 0.025
CC(C)C[C@@H]1NC(=O)[C@H]([C@@H](C)O)NC(=O)[C@H](CC(=O)O)NC(=O)[C@H](CO)NC(=O)[C@H](CCCNC(=N)N)N(C)C(=O)c2ccccc2CSC(C)(C)[C@@H](C(=O)N[C@@H](Cc2c[nH]c3ccccc23)C(=O)N[C@H](CCC(=O)O)C(=O)N[C@@H](CCC(=O)O)C(N)=O)NC1=O [compound 113] (HELM PEPTIDE1{[meR].S.D.T.L.[Pen].W.[dE].E.[am]}|CHEM1{[O=C(c1ccccc1C[*:2])[*:1]]}$PEPTIDE1,CHEM1,1:R1-1:R1|PEPTIDE1,CHEM1,6:R3-1:R2$$$V2.0)	< 0.025
CC(C)C[C@@H]1NC(=O)[C@H]([C@@H](C)O)NC(=O)[C@H](CC(=O)O)NC(=O)[C@H](CO)NC(=O)[C@H](CCCNC(=N)N)N(C)C(=O)c2ccccc2CSC(C)(C)[C@@H](C(=O)N[C@@H](Cc2c[nH]c3ccccc23)C(=O)N[C@@H](CCC(=O)O)C(N)=O)NC1=O [compound 96] (HELM PEPTIDE1{[meR].S.D.T.L.[Pen].W.E.[am]}|CHEM1{[O=C(c1ccccc1C[*:2])[*:1]]}$PEPTIDE1,CHEM1,1:R1-1:R1|PEPTIDE1,CHEM1,6:R3-1:R2$$$V2.0)	< 0.025

same assay, conditions: thioether peptide dimers, Table 7; read-out: ELISA A4B7

SMILES	IC50 [µM]
CC(C)C[C@@H]1NC(=O)[C@H]([C@@H](C)O)NC(=O)[C@H](CC(=O)O)NC(=O)[C@H](CO)NC(=O)[C@H](CCCNC(=N)N)N(C)C(=O)c2ccccc2CSC(C)(C)[C@@H](C(=O)N[C@@H](Cc2cccc3ccccc23)C(=O)N[C@@H](CCC(=O)O)C(=O)N[C@H](CCCCNC(=O)COCC(=O)NCCCC[C@@H](NC(=O)[C@H](CCC(=O)O)NC(=O)[C@H](Cc2cccc3ccccc23)NC(=O)[C@H]2NC(=O)[C@H](CC(C)C)NC(=O)[C@H]([C@@H](C)O)NC(=O)[C@H](CC(=O)O)NC(=O)[C@H](CO)NC(=O)[C@H](CCCNC(=N)N)N(C)C(=O)c3ccccc3CSC2(C)C)C(N)=O)C(N)=O)NC1=O [compound 167] (I: [NMeR]SDTL[Pen][1Nal]E[dK]-NH2 / II: [NMeR]SDTL[Pen][1Nal]E[dK]-NH2; linker I:9-II:9 via Diglycolyl; linker I:N-I:6, II:N-II:6 via X1)	< 0.025
CC(C)C[C@@H]1NC(=O)[C@H]([C@@H](C)O)NC(=O)[C@H](CC(=O)O)NC(=O)[C@H](CO)NC(=O)[C@H](CCCNC(=N)N)N(C)C(=O)c2ccccc2CSC[C@@H](C(=O)N2Cc3ccccc3C[C@H]2C(=O)N[C@H](CCC(=O)O)C(=O)N[C@H](CCCCNC(=O)COCC(=O)NCCCC[C@@H](NC(=O)[C@@H](CCC(=O)O)NC(=O)[C@@H]2Cc3ccccc3CN2C(=O)[C@@H]2CSCc3ccccc3C(=O)N(C)[C@@H](CCCNC(=N)N)C(=O)N[C@@H](CO)C(=O)N[C@@H](CC(=O)O)C(=O)N[C@@H]([C@@H](C)O)C(=O)N[C@@H](CC(C)C)C(=O)N2)C(N)=O)C(N)=O)NC1=O [compound 184] (I: [NMeR]SDTLC[Tic][dE][dK]-NH2 / II: [NMeR]SDTLC[Tic][dE][dK]-NH2; linker I:9-II:9 via Diglycolyl; linker I:N-I:6, II:N-II:6 via X1)	< 0.025
CC(C)C[C@@H]1NC(=O)[C@H]([C@@H](C)O)NC(=O)[C@H](CC(=O)O)NC(=O)[C@H](CO)NC(=O)[C@H](CCCNC(=N)N)N(C)C(=O)c2ccccc2CSC[C@@H](C(=O)N2Cc3ccccc3C[C@H]2C(=O)N[C@H](CCC(=O)O)C(=O)N[C@H](CCCCNC(=O)COCC(=O)NCCCC[C@@H](NC(=O)[C@@H](CCC(=O)O)NC(=O)[C@@H]2Cc3ccccc3CN2C(=O)[C@@H]2CSCc3ccccc3C(=O)N(C)[C@@H](CCCNC(=N)N)C(=O)N[C@@H](CO)C(=O)N[C@@H](CC(=O)O)C(=O)N[C@@H]([C@@H](C)O)C(=O)N[C@@H](CC(C)C)C(=O)N2)C(=O)O)C(=O)O)NC1=O [compound 207] (I: [NMeR]SDTLC[Tic][dE][dK]-OH / II: [NMeR]SDTLC[Tic][dE][dK]-OH; linker I:9-II:9 via Diglycolyl; linker I:N-I:6, II:N-II:6 via X1)	< 0.025
CC(C)C[C@@H]1NC(=O)[C@H]([C@@H](C)O)NC(=O)[C@H](CC(=O)O)NC(=O)[C@H](CO)NC(=O)[C@H](CCCNC(=N)N)N(C)C(=O)c2ccccc2CSC(C)(C)[C@@H](C(=O)N[C@@H](Cc2ccc(C(F)(F)F)cc2)C(=O)N[C@@H](CCC(=O)O)C(=O)N[C@H](CCCCNC(=O)COCC(=O)NCCCC[C@@H](NC(=O)[C@H](CCC(=O)O)NC(=O)[C@H](Cc2ccc(C(F)(F)F)cc2)NC(=O)[C@H]2NC(=O)[C@H](CC(C)C)NC(=O)[C@H]([C@@H](C)O)NC(=O)[C@H](CC(=O)O)NC(=O)[C@H](CO)NC(=O)[C@H](CCCNC(=N)N)N(C)C(=O)c3ccccc3CSC2(C)C)C(N)=O)C(N)=O)NC1=O [compound 166] (I: [NMeR]SDTL[Pen][Phe(4-CF3)]E[dK]-NH2 / II: [NMeR]SDTL[Pen][Phe(4-CF3)]E[dK]-NH2; linker I:9-II:9 via Diglycolyl; linker I:N-I:6, II:N-II:6 via X1)	< 0.025
CC(C)C[C@@H]1NC(=O)[C@H]([C@@H](C)O)NC(=O)[C@H](CC(=O)O)NC(=O)[C@H](CO)NC(=O)[C@H](CCCNC(=N)N)N(C)C(=O)c2ccccc2CSC(C)(C)[C@@H](C(=O)N[C@@H](Cc2ccc(-c3ccccc3)cc2)C(=O)N[C@H](CCC(=O)O)C(=O)N[C@H](CCCCN)C(N)=O)NC1=O [compound 178] (HELM PEPTIDE1{[meR].S.D.T.L.[Pen].[O=C([C@H](Cc1ccc(-c2ccccc2)cc1)N[*:1])[*:2]].[dE].[dK].[am]}|CHEM1{[O=C(c1ccccc1C[*:2])[*:1]]}$PEPTIDE1,CHEM1,1:R1-1:R1|PEPTIDE1,CHEM1,6:R3-1:R2$$$V2.0)	< 0.025

Source: patent US20260217767A1, “NOVEL A4B7 THIOETHER PEPTIDE DIMER ANTAGONISTS” (Protagonist Therapeutics, Inc., priority 2014, published 2026)
